Literature values, collected in US5567683A, “Substituted lactose and lactosamine derivatives as cell adhesion inhibitors” (Glycomed Incorporated, priority 1994, dated 1996).

System: mammalian hepatocytes
Conditions: effect of valency and spacing of lactose moieties; read-out: IC50 for inhibition of labeled ASOR binding to mammalian hepatocytes

For `OC[C@H]1O[C@@H](O[C@H]2[C@H](O)[C@@H](O)C(O)O[C@@H]2CO)[C@H](O)[C@@H](O)[C@H]1O` (stereo partly shown) [monovalent lactose, lactose], the IC50 is listed as 500 µM.
